Data as given in US11807620B2, “Quinazolinone compounds and related compounds” (PLEXIUM, INC., priority 2020, dated 2023).

Legend:
[1] = target: T1, cereblon (NanoLuc-CRBN) (Homo sapiens, UniProt Q96SW2); experiment: NanoBRET CRBN Cellular Target Engagement Assay; type: binding; details: compound tested at 10 μM, HEK293T cells transfected with NanoLuc-CRBN, 2 hr incubation; for remaining activity at 10 µM: lower = higher affinity, read-out: % tracer bound At the end of assay; for inhibition at 10 µM: read-out: % tracer removed From CBLN
T1 construct: host or cells: HEK293T
T1 sequence (Q96SW2 whole entry): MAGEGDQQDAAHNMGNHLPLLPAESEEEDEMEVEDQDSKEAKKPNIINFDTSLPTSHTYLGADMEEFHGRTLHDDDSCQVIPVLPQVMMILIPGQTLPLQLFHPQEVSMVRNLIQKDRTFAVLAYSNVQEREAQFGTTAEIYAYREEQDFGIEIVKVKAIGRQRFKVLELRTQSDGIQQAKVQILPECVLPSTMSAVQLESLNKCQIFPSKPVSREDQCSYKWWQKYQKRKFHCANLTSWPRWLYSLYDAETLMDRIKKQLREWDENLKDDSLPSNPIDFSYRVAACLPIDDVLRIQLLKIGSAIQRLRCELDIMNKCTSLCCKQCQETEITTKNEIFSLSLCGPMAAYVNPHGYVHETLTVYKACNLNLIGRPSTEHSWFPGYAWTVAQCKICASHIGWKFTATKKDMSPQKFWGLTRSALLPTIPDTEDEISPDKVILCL
Text: The following example measures the extent to which a test compound of this invention binds to cereblon. In this example, a commercially available cereblon binding test kit (Promega Corporation, Madison, Wis., USA) was used but adapted to a 384 well format.
The kit comprises a tracer that binds to cereblon to form a tracer-cereblon complex. This complex is reversible. Upon addition of the test compound, competition between the tracer and the test compound for the binding site(s) on cereblon occurs. The extent of tracer release from cereblon correlates to the affinity of test compound to bind to cereblon. The higher the affinity, the more tracer is released from cereblon.
The assay is a homogenous cell-based assay that used bioluminescence resonance energy transfer (BRET) to measure cereblon target compound binding which causes loss of BRET. Lower BRET values correlate to higher loss of tracer bound to cereblon and, accordingly, higher the levels of target compound binding to cereblon.
The specifics of the assay include HEK293T cells were transfected with a NanoLuc-CRBN expression plasmid using Fugene as described. Approximately 24 hr later, transfected cells were washed with 1× Phosphate Buffered Saline (PBS) and harvested using trypsin. Cells were resuspended in Opti-MEM (available from Thermo Fisher Scientific) at a concentration of 2×10^5 cells/mL. A ratio of 1 part 100× Tracer to 4 parts NanoBRET Tracer Dilution Buffer was used to make a 20× Tracer stock. Next, 40 μl cells per well containing 1× tracer was dispensed into 384 well white tissue culture treated plates. Compounds were then dispensed using a D330e Digital Dispenser (Tecan Trading AG) and plates were allowed to incubate for 2 hr at 37° C., 5% CO2. Immediately prior to BRET measurements, a 3× Complete NanoBret Nano-Glo Substrate stock in Opti-MEM was prepared and 20 μl per well of substrate was subsequently added to the assay plates. Following a 2-3 minute incubation at room temperature, donor (450 nm) and acceptor (610 nm) emission values were read on a CLARIOStar multimode plate reader (BMG) in luminescence mode. Data were converted to milliBRET units by dividing acceptor emission values by donor emission and multiplying by 1000. […]

[2] = target: T2, IKZF1 (Ikaros) (Homo sapiens, UniProt Q13422+Q96SW2); experiment: Stable cell line fluorescent reporter degradation assay, IKZF1; type: cell-based; details: HEK 293T IKZF1-mNeonGreen reporter cells, 24 hour incubation, calculated visually from the curves; for Dmax at 10 µM: 10 micromolar
T2 construct: mScarlet (C, cleaved yes); expressed in transfected cells
T2 sequence (Q13422 whole entry): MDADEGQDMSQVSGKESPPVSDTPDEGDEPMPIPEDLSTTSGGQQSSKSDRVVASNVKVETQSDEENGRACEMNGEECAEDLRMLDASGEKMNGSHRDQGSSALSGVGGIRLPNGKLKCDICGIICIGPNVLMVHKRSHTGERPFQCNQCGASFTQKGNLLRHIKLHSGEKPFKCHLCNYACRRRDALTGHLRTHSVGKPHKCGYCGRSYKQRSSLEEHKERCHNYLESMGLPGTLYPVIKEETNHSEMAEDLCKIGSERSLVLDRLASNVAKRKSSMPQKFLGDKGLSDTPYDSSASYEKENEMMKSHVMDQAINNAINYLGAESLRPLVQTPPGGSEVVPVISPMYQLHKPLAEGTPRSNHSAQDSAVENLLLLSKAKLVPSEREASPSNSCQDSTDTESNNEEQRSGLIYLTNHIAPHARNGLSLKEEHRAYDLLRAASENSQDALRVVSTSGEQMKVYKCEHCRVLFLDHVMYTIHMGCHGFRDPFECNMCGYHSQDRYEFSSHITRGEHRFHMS
T2 sequence (Q96SW2 whole entry): as the sequence (Q96SW2 whole entry) above
T2 sequence (Q16531 whole entry partner): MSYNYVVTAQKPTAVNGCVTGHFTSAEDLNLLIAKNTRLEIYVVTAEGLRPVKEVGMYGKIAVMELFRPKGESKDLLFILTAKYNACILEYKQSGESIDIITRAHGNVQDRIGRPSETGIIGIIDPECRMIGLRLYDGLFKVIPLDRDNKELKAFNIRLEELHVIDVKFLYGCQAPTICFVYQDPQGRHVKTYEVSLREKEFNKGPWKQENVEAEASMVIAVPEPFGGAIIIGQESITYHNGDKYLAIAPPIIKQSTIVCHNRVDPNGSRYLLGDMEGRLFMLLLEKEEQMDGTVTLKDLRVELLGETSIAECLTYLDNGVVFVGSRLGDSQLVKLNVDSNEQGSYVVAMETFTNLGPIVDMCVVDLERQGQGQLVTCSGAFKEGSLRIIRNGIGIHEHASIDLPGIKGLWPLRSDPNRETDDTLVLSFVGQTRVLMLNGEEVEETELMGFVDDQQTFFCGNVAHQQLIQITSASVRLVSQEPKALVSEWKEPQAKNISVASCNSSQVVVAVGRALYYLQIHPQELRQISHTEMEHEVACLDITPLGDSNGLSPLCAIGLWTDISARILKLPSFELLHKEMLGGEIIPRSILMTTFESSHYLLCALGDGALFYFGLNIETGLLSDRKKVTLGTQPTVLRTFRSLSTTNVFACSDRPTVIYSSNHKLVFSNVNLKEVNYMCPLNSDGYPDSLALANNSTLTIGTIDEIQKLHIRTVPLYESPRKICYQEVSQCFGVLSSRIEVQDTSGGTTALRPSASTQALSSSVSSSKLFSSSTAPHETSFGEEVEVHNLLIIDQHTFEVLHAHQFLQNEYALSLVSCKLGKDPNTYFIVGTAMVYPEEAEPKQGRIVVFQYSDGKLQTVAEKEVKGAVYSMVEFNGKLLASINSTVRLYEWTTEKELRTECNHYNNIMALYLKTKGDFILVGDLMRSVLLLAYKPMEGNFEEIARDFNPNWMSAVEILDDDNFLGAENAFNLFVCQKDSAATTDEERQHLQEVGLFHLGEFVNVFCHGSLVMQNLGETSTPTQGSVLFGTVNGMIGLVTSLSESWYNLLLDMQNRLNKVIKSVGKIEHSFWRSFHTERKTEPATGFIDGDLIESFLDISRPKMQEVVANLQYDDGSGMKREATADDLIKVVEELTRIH
Text: (§1) Polycistronic plasmids were constructed for the mammalian expression of fluorescent reporter fusions of human transcription factors IKZF1 (Ikaros) and IKZF3 (Aiolos). The respective protein sequences had their C-terminal end joined to a GGGGS linker repeated three times followed by mNeonGreen, P2A sequence, and mScarlet. IKZF1 expression was driven by a CMV promoter while IKZF3 was EF1α promoter driven. The plasmids contained the HygR resistance gene for positive selection of cells with genomic integration of the reporter constructs. The plasmids were transfected using cationic lipid reagents into adherent HEK 293T cells and stable integrants were selected by treatment with 200 ug/mL hygromycin B. Clonal populations were obtained from the population of stable integrants either by limiting dilution or fluorescence activated cell sorting. The clonal stable cell lines were maintained under constant 200 ug/mL hygromycin B selection while being passaged for use in the degradation assays. The fluorescence intensity of the IKZF1/2/3-mNeonGreen (FITC channel) and mScarlet (PE channel) reporters were routinely analyzed by flow cytometry to confirm consistent expression levels between experiments.
(§2) Representative compounds were evaluated for their ability to degrade IKZF1 and IKZF3 in the following assay.
(§3) The IKZF1/IKZF3 degradation assays were carried out by harvesting the HEK 293T reporter cell lines and resuspending the cells in media formulated for reduced background fluorescence. The respective cell lines were seeded at a density of 4,000 cells/well into black-walled 384-well optical grade assay plates pre-coated by the manufacturer with PDL. The cells were incubated overnight to allow for attachment to the assay plate (37° C. with humidified air and 5% CO2 for all incubations). Dilutions of the compounds were prepared in dimethyl sulfoxide (DMSO) from 10 mM compound stock solutions in DMSO. The assay plates were treated with appropriate concentrations of the compounds by dispensing the DMSO dilutions in quadruplicate wells with an upper limit of 0.5% final DMSO.
(§4) After a 24 hour incubation with the compounds, the assay plates were imaged on an ImageXpress Pico microscopy system (cells maintained at 37° C. during imaging) to obtain the fluorescent readouts. The assay plates were imaged in the FITC and TRITC channels to obtain the mNeonGreen fluorescence intensity (reporter degradation data) and mScarlet fluorescence intensity (for cell segmentation), respectively. 293T-IKZF1 and 293T-IKZF3 reporter cell lines were imaged with exposures of 500 milliseconds (ms) for both FITC and TRITC channels. The resulting data was analyzed with Cell Reporter Xpress software using the 2-channel cell scoring analysis with a “percent positive” readout. The TRITC channel was selected for the “nuclei” segmentation with a threshold of 20 while the FITC channel was selected for the “Marker 1” segmentation and a threshold of 100 for the IKZF1 and IKZF3 reporter lines. The minimum segmentation width was set to 6 micrometers and the maximum segmentation width was set to 15 micrometers for all cell lines.
(§5) The percent degradation amounts were calculated visually from the curves generated at a concentration of 10 micromolar.

[3] = target: T3, IKZF3 (Aiolos) (Homo sapiens, UniProt Q96SW2+Q9UKT9); experiment: Stable cell line fluorescent reporter degradation assay, IKZF3; type: cell-based; details: HEK 293T IKZF3-mNeonGreen reporter cells, 24 hour incubation, calculated visually from the curves; for Dmax at 10 µM: 10 micromolar
T3 construct: mScarlet (C, cleaved yes); expressed in transfected cells
T3 sequence (Q9UKT9 whole entry): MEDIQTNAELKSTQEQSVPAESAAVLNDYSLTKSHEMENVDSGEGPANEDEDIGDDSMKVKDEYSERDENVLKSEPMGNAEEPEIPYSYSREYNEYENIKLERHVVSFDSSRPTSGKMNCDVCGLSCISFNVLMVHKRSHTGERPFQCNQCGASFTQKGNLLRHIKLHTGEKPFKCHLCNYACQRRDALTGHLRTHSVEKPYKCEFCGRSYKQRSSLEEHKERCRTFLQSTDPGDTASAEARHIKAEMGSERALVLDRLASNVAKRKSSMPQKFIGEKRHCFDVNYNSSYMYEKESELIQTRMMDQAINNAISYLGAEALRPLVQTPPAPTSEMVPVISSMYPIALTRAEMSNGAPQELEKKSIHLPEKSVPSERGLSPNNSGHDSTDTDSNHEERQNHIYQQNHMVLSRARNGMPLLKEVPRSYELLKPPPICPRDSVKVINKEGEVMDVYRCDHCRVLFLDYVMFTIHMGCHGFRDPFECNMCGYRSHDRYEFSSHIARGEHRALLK
T3 sequence (Q96SW2 whole entry): as the sequence (Q96SW2 whole entry) above
T3 sequence (Q16531 whole entry partner): as the sequence (Q16531 whole entry partner) above
Text: as §1, §2, §3, §4, §5

| Structure (SMILES) | remaining activity at 10 µM [1] [%] | inhibition at 10 µM [1] [%] | Dmax at 10 µM [2] [%] | Dmax at 10 µM [3] [%] | Dmax at 10 µM ([2]; HEK-293T, 24 h) [%] | Dmax at 10 µM ([3]; HEK-293T, 24 h) [%] | % Degradation IKZF1 @ 10 micromolar [2] [%] | % Degradation IKZF3 @ 10 micromolar [3] [%] |
| --- | --- | --- | --- | --- | --- | --- | --- | --- |
| Cc1nc2cccc(NCc3ccc(CN4CCN(c5ccc(C#N)cc5F)CC4)cc3)c2c(=O)n1C1CCC(=O)NC1=O (stereo not shown) [Example 34, 4-(4-(4-(((3-(2,6-dioxopiperidin-3-yl)-2-methyl-4-oxo-3,4-dihydroquinazolin-5-yl)amino)methyl)benzyl)piperazin-1-yl)-3-fluorobenzonitrile] | 27.4 | 72.6 | 93.1 | 93.2 |  |  |  |  |
| COc1ccc(CNc2cccc3nc(C)n(C4CCC(=O)NC4=O)c(=O)c23)cc1 (stereo not shown) [Example 1, 3-(5-((4-methoxybenzyl)amino)-2-methyl-4-oxoquinazolin-3(4H)-yl)piperidine-2,6-dione] | 47.3 | 52.7 | 89.1 | 91.1 |  |  |  |  |
| Cc1nc2cccc(NCc3ccc(F)cc3)c2c(=O)n1C1CCC(=O)NC1=O (stereo not shown) [Example 4, 3-(5-((4-fluorobenzyl)amino)-2-methyl-4-oxoquinazolin-3(4H)-yl)piperidine-2,6-dione] | 40.9 | 59.1 |  |  | 92.4 | 95.8 |  |  |
| Cc1nc2cccc(NCc3ccc(CN4CC(N5CCOCC5)C4)cc3F)c2c(=O)n1C1CCC(=O)NC1=O (stereo not shown) [Example 96, 3-(5-((2-fluoro-4-((3-morpholinoazetidin-1-yl)methyl)benzyl)amino)-2-methyl-4-oxoquinazolin-3(4H)-yl)piperidine-2,6-dione] |  |  |  |  |  |  | 92.6 | 92.6 |
| O=C1CCC(n2nnc3cccc(NCc4ccc(CN5CCOCC5)cc4)c3c2=O)C(=O)N1 (stereo not shown) [compound 36, 3-(5-((4-(morpholinomethyl)benzyl)amino)-4-oxobenzo[d][1,2,3]triazin-3(4H)-yl)piperidine-2,6-dione] |  |  |  |  | 88.2 | 87.4 |  |  |
| O=C1CCC(n2cnc3cccc(NCc4ccc(CN5CC(N6CCOCC6)C5)cc4F)c3c2=O)C(=O)N1 (stereo not shown) [compound 101, 3-(5-((2-fluoro-4-((3-morpholinoazetidin-1-yl)methyl)benzyl)amino)-4-oxoquinazolin-3(4H)-yl)piperidine-2,6-dione] |  |  |  |  | 78.4 | 92.4 |  |  |
| Cc1nc2cccc(NCc3cccc(F)c3)c2c(=O)n1C1CCC(=O)NC1=O (stereo not shown) [Example 5, 3-(5-((3-fluorobenzyl)amino)-2-methyl-4-oxoquinazolin-3(4H)-yl)piperidine-2,6-dione] | 23.8 | 76.2 |  |  | 89.7 | 93.6 |  |  |
| Cc1nc2cccc(NCc3ccc(CN4CCOCC4)cc3)c2c(=O)n1C1CCC(=O)NC1=O (stereo not shown) [compound 32, 3-(2-methyl-5-((4-(morpholinomethyl)benzyl)amino)-4-oxoquinazolin-3(4H)-yl)piperidine-2,6-dione] |  |  | 93.8 | 91.9 |  |  |  |  |
| Cc1cccc(CNc2cccc3nc(C)n(C4CCC(=O)NC4=O)c(=O)c23)c1 (stereo not shown) [Example 7, 3-(2-methyl-5-((3-methylbenzyl)amino)-4-oxoquinazolin-3(4H)-yl)piperidine-2,6-dione] | 22.9 | 77.1 |  |  | 76.8 | 94.3 |  |  |
